Reference: patent US20060094668A1 (Wyeth, priority 2004, published 2006)

What was measured:
[1] = clinical; settings: human, in vivo; for AUC(0-t): AUC0-12 h; for Vd: Vss
Protocol: One (1) hour after a medium-fat meal, and after a predose 7-mL blood sample for a baseline tigecycline PK analysis, each subject received a single 100-mg dose of tigecycline.
Venous blood samples (7 mL each) for determination of tigecycline concentrations in serum were collected at the following times: on day 1, predose (within 2 hours before the start of the tigecycline infusion), and at 0.5 (end of infusion), 1, 1.5, 2, 3, 4, 6, 8,12,16, 24, 36, 48, 72, and 96 hours after tigecycline administration; and on day 19, predose, and at 0.5 (end of infusion), 1,1.5, 2, 3, 4, 6, 8, 12,16, 24, 36, 48, 72, and 96 hours after tigecycline administration.
Serum tigecycline samples were analyzed by a validated liquid chromatography/tandem mass spectroscopy (LC/MS/MS) method.
Tigecycline peak serum concentration (Cmax) and time to peak concentration (tmax) were reported from the observed data. Concentrations that were judged to be in the terminal phase were used to obtain the terminal-phase disposition rate constant (λz) by log-linear regression. The half-life (t1/2) was calculated as 0.693/λz. Tigecycline concentrations over the time period from hours 24 to 96 were used to estimate the t1/2.
Total AUC0-εr and AUMC were estimated as follows: AUC=(AUCt)+Ct/λz, and AUMC=(AUMCt)+tlast·Ct/λz+Ct/λz●2
The IV clearance (CL) was calculated and normalized by body weight (WT) as follows: CL=Dose/(AUC●WT). The apparent Vss was estimated by Vss=CL·MRT.
For this period of the study, the MRT was calculated as: MRT=(AUMC0-t+(t·Ctλz))/AUC0-t.
According to linear PK theory, (Gibaldi M, Perrier D. Pharmacokinetics. Marcel Dekker, Inc., 1982) the total AUC after a single dose (AUC0-∞) is equal to AUC over the dose interval τ at steady state (AUC0 τ).
For statistical comparisons, AUC, MRT, and Vss on day 1 (period 1) were based on concentrations normalized to the 50-mg tigecycline dose given during period 3.
(§1) Geometric least-squares (GLS) mean ratios of tigecycline PK parameters were computed, and their associated 90% confidence intervals (Cls) calculated based on least squares means and the mean square error obtained from the 2-way ANOVA. […] The SAS statistical software package was used for all statistical analyses.

[2] = assay type: in vivo, human
Text: On each day before the start of study periods 1 and 2 (day-1 and day 6), all subjects underwent physical examinations, laboratory tests, vital sign assessments, and a standard 12-lead electrocardiogram (ECG), which included measurements of rhythm, heart rate, PR, QRS, QT, and QTc intervals. Adverse event monitoring was continuous, and blood samples for PK analysis was completed at the designated times throughout all study periods. Before dose administration on days 1, 7 and 15, 3 complete ECGs were performed for each subject, and the mean value used as the subject's baseline for each corresponding period.
Twelve (1 2)-lead ECGs were performed at screening, on day-1, on days 1, 7, 14, 15, and 19 within 2 hours before study drug administration, on days 2 through 6, 8 through 13, 16 through 18, 20, 21, and 22, and at the final evaluation at approximately 8 AM.
Descriptive statistics were obtained for all demographic characteristics, drug concentrations, PK parameters, and changes from baseline in ECG parameters. Analysis of variance (ANOVA) was performed on the natural logarithm-transformed PK parameters to evaluate treatment and subject effects. An analysis of the change from baseline in ECG parameters with and without multiple-dose tigecycline administration was conducted by using ANOVA, which included terms for subject and treatment effects. […]

[3] = literature case reports and studies; cited from earlier work
[4] = clinical; settings: human, in vivo
Protocol: Both study medications were always administered 1 hour after a medium-fat meal. Tigecycline was administered intravenously (IV) in […] sterile normal saline over 30 minutes for all doses.
At approximately 8 AM, each subject received 100 mg of tigecycline. […] At approximately 8 PM, each subject received 50 mg of tigecycline.
In addition, on days 16 through 18, each subject received 50 mg of tigecycline every 12 hours (at approximately 8 AM and 8 PM).
All samples were collected from an indwelling catheter or by direct venipuncture into blood collection tubes containing ethylenediaminetetraacetic acid.
The Cmax and tmax values were taken directly from the observed data. The λz and t1/2 values were not estimable because blood samples were not collected during the terminal disposition phase.
Vss/F and MRT could not be calculated because λz could not be estimated.
as §1

[5] = Urinary digoxin pharmacokinetics (Ae, CLr), digoxin alone vs with tigecycline; settings: N = 20; for CL renal: human, urine and plasma, oral, 0.25 mg, CLr
Text: In addition, a 24-hour urine collection (day 14 to day 15) for PK analysis was completed for each subject.
Subjects were required to void completely at the end of the predose period and at the end of each time interval after dose administration to ensure a complete interval collection.
Pharmacodynamic Assessments

CN(C)c1cc(NC(=O)CNC(C)(C)C)c(O)c2c1C[C@H]1C[C@H]3[C@H](N(C)C)C(O)=C(C(N)=O)C(=O)[C@@]3(O)C(O)=C1C2=O [Tigecycline]
clearance [1]: 3.7 mL/min/kg | half-life [1]: 26.7 h | AUC(0-t) ([1]; serum tigecycline, Geo. Mean): 2450 ng·h/mL | AUC(0-t) ([1]; serum tigecycline, Mean ± SD): 2480 ± 379 ng·h/mL | AUC ([1]; AUC, serum tigecycline, Mean ± SD): 2840 ± 732 ng·h/mL | MRT ([1]; serum tigecycline, Geo. Mean): 29 h | MRT ([1]; serum tigecycline, Mean ± SD): 30 ± 8.3 h | Vd ([1]; serum tigecycline, Geo. Mean): 6.43 L/kg | Vd ([1]; serum tigecycline, Mean ± SD): 6.53 ± 1.3 L/kg | clearance ([1]; iv): 3.82 mL/min/kg | effect on steady-state digoxin PD as measured by changes from baseline in ECG parameters ([2]; PR, QRS, QT, QTc intervals at 24 hours): did not produce significant changes | QT interval, change from baseline ([2]; in vivo): not changed further

CC[C@H]1OC(=O)[C@H](C)[C@@H](O[C@H]2C[C@@](C)(OC)[C@@H](O)[C@H](C)O2)[C@H](C)[C@@H](O[C@@H]2O[C@H](C)C[C@H](N(C)C)[C@H]2O)[C@](C)(OC)C[C@@H](C)C(=O)[C@H](C)[C@@H](O)[C@]1(C)O [Clarithromycin]
effect on plasma levels of digoxin [3]: increase plasma levels of digoxin, sometimes to toxic levels

C[C@H]1O[C@@H](O[C@H]2[C@@H](O)C[C@H](O[C@H]3[C@@H](O)C[C@H](O[C@H]4CC[C@@]5(C)[C@H](CC[C@@H]6[C@@H]5C[C@@H](O)[C@]5(C)[C@@H](C7=CC(=O)OC7)CC[C@]65O)C4)O[C@@H]3C)O[C@@H]2C)C[C@H](O)[C@@H]1O [Digoxin]
concentration at 0 h [4]: 0.405 ng/mL | concentration at 0.5 h [4]: 0.686 ng/mL | concentration at 1 h [4]: 1.02 ng/mL | concentration at 2 h [4]: 0.966 ng/mL | concentration at 4 h [4]: 0.645 ng/mL | concentration at 6 h [4]: 0.517 ng/mL | concentration at 8 h [4]: 0.531 ng/mL | concentration at 10 h [4]: 0.451 ng/mL | concentration at 12 h [4]: 0.405 ng/mL | concentration at 16 h [4]: 0.383 ng/mL | concentration at 24 h [4]: 0.33 ng/mL | effect on the AUC, CL, or MRT of tigecycline [1]: did not affect | Ae, urinary digoxin, Geo. Mean [5]: 40.3% | CL renal ([5]; digoxin renal clearance, Mean ± SD): 1.82 ± 0.37 mL/min/kg | CL renal ([5]; digoxin, Geo. Mean): 1.79 mL/min/kg | Ae, urinary digoxin, Mean ± SD ([5]; percentage of dose excreted unchanged in urine 0-24 h): 41.3 ± 9.0%
